Results as given in PubChem BioAssay AID179 (DTP/NCI, 2004).
Where “and” joins values, the source holds several entries; their conditions need not be identical. Equal values may be shown once. Calls of active or inactive are those of the source.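 How the source made its calls: active means compounds giving half or more protection of infected cells from virus-caused growth loss, again on retest; inactive means the rest.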

System: CEM cells HIV-1 protection, formazan growth assay
Test: NCI AIDS Antiviral Assay
Details: for IC50: measured here: growth of uninfected CEM cells
Procedure, shortened: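 Steps: treat uninfected and HIV-1-infected human CEM cells at five drug levels; quantify growth by soluble formazan; retest any compound reaching 50% protection; classify actives from the retest.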

SMILES | EC50 [µM] | IC50 | outcome
COc1ccc2c(c1)C(=O)CC(C(=O)O)C2 (centres undefined) | > 1120 | > 1120 µM | 
CN1CCN(c2ccc(-n3cc(C(=O)O)c(=O)c4cc(F)c(N5CCN(C)CC5)cc43)nc2)CC1 | > 200 | 115 µM | 
C=CCOC1OC(CS(=O)(=O)O)C(O)C(O)C1O (centres undefined) |  |  | inactive
COc1ccc(-c2cc(NC(=O)c3ccccc3)c(=O)oc2C)cc1 | > 200 | > 200 µM | 
O=C1Cc2c([nH]c3c(Br)cccc23)-c2ccccc2N1 | > 200 | 29.5 µM | 
CC(=O)OC(C)C1C2=C(C(=O)CC1(C)O)C(=O)c1c(ccc(-c3ccc4c(c3O)C(=O)C3=C(C4=O)C(C(C)OC(C)=O)C(C)(O)CC3=O)c1O)C2=O (centres undefined) | > 66.1 | 0.263 µM | 
CC(=O)OCC(OC(C)=O)C(OC(C)=O)C(OC(C)=O)C(=O)CNn1c(-c2ccccc2)nc2ccc(Br)cc2c1=O (centres undefined) |  |  | inactive
CC(C)=CCC/C(=C/CC/C(C)=C/CCc1ccoc1)C(=O)O | > 295 | 107 µM | 
Cc1cn(C2C=CC(CO)O2)c(=O)[nH]c1=O (centres undefined) | 1.62 | 186 µM | 
O=C1CNN=C(Cn2nc(-c3ccccc3)c3ccccc3c2=O)N1 | > 6.03 | > 6.03 µM | 
O=C1OC(=O)c2c1nc1ccccc1c2-c1ccccc1 |  |  | inactive
CC(C)(C)OC(=O)NC(Cc1cc(C(C)(C)C)c(O)c(C(C)(C)C)c1)C(=O)O (centres undefined) | > 200 | 61.7 µM | 
O=C(OC[C@H]1O[C@@H](OC(=O)c2cc(O)c(O)c(O)c2)[C@H](OC(=O)c2cc(O)c(O)c(O)c2)[C@@H](OC(=O)c2cc(O)c(O)c(O)c2)[C@@H]1OC(=O)c1cc(O)c(O)c(O)c1)c1cc(O)c(O)c(O)c1 | > 132 | 21.4 µM | 
CC(=O)Oc1cc(-c2oc3cc(OC(C)=O)c(C4OC(CO)C(O)C(O)C4O)c(OC(C)=O)c3c(=O)c2O)c(OC(C)=O)cc1O (centres undefined) | > 200 | > 200 µM | 
O=C1CC(c2ccccc2)Oc2cc(O)cc(O)c21 (centres undefined) | > 200 | 34.7 µM and > 200 µM and 55 µM | 
CCCCOCc1cc(CN2CCN(C)CC2)c(O)c2ncccc12 | > 145 | 8.71 µM | 
CC1=N/C(=C\c2ccccc2C)C(=O)O1 | > 1230 | > 1230 µM | 
CC1(C)CC(=O)C(/C=N/c2nc(-c3cccc([N+](=O)[O-])c3)cs2)=C(O)C1 | > 200 | 8.32 µM | 
COc1cccc(NC(=O)CC(=O)NNCC(=O)Nc2nnc(-c3ccc(N(CCC#N)S(=O)(=O)c4ccccc4)cc3)s2)c1 | > 77.6 | 66.1 µM | 
Cc1cc(N(CCC#N)CCC#N)ccc1/C=C1\N=C(c2cc([N+](=O)[O-])ccc2Cl)N(c2cccc(Cl)c2)C1=O | > 12.6 | > 12.6 µM | 
O=C(Nc1ccc(Cl)cc1C(F)(F)F)C(=O)C1CCCS1(=O)=O (centres undefined) |  |  | inactive
COC(=O)C(=O)C(C(=O)C(=O)Nc1cc(C)ccc1C)c1nc2ccccc2[nH]c1=O (centres undefined) | > 589 | 275 µM | 

SMILES | EC50 [µM] | IC50 | outcome
CN(Cc1cnc2nc(N)nc(N)c2n1)c1ccc(C(=O)NC(CCC(=O)NC(CC(P(=O)(O)O)P(=O)(O)O)C(=O)O)C(=O)O)cc1 (centres undefined) | > 100 | 0.219 µM | 
OCCCN=C1N=C(Cl)/C(=C\c2ccccc2)N1 | > 200 | > 200 µM | 
C/C(=N\NS(=O)(=O)c1ccccc1)c1ccc(Cl)c(Cl)c1 |  |  | inactive
CN(Cc1nc2c(N)nc(N)nc2[nH]c1=O)c1ccc(C(=O)NC(CCC(=O)O)C(=O)O)cc1 (centres undefined) | > 200 | 10.7 µM and 8.13 µM | 
COC(=O)C(=O)C(C(=O)C=C(C)C)C(=O)C(=O)Nc1cc(C(F)(F)F)ccc1Cl (centres undefined) | > 83.2 | > 83.2 µM | 
Cc1ccc(NC(=O)CCc2nnc(N)o2)cc1 | > 380 | > 380 µM | 
O=C1CSC(=S)N1N1C(=O)CSC1=S | > 200 | > 200 µM | 
CCOC(=O)C1(C#N)C(C#N)(C#N)C1(C#N)C#N | > 200 | > 200 µM | 
O=C1Nc2ccccc2NC1C1OC(c2ccccc2)=CC1=O (centres undefined) | > 200 | 97.7 µM | 
Cc1ccccc1NC(=O)/C=N/O |  |  | inactive
CO[C@@H]1C[C@H]2[C@@H]3CC[C@H]([C@H](C)COC(C)=O)[C@@]3(C)CC[C@@H]2[C@@]2(C)CC[C@H]3C[C@]312 | > 100 | > 100 µM | 
CNc1ccc(F)cc1SSc1cc(F)ccc1NC | > 200 | 4.79 µM | 
CN(C)CC1CCCCC(CN(C)C)C1=O (centres undefined) |  |  | inactive
O=C1NC(Cc2ccc(O)c(O)c2)C(=O)N2CCCC12 (centres undefined) | > 200 | > 200 µM | 
c1ccc(CSCCC(SCc2ccccc2)SCc2ccccc2)cc1 | > 200 | > 200 µM | 
Cc1cc2cc3ccccc3cc2c(=O)[nH]1 | > 200 | 182 µM | 
Cc1ccc(Nc2nc(C)c(C(=O)CC(=O)C(=O)Nc3c(C)cccc3C(C)(C)C)s2)cc1 | > 200 | > 200 µM | 
O=S1(=O)/C(=C\C2CCCCC2)c2c1c(-c1ccccc1)c1ccccc1c2-c1ccccc1 | > 49 | > 49 µM | 
O=C(NNC(=S)NCc1ccccc1)c1csc(NC(=S)NC2CCCCC2)n1 | > 200 | 57.5 µM | 
Cc1ccc(S(=O)(=O)N(C)c2ccccc2)cc1 | > 200 | 52.5 µM | 
Cc1cc(Cl)ccc1C(=O)c1ccc2ccccc2c1C(=O)O | > 550 | 126 µM | 
CC(=O)OCC1OC(n2c(-c3ccc(C)cc3)cc(-c3ccco3)c(C#N)c2=S)C(OC(C)=O)C(OC(C)=O)C1OC(C)=O (centres undefined) | > 200 | 155 µM | 

SMILES | EC50 [µM] | IC50 | outcome
C(=C/c1ccnc2ccccc12)/c1cccs1 | 0.0631 | 47.9 µM | 
COc1ccc2c(C(=O)O)cc3ccccc3c2c1OC |  |  | inactive
OC1C#CCSCC#C/C=C\1 (centres undefined) | > 200 | 10.5 µM | 
CC1(C)/C(=N\O)C2(OS(=O)(=O)C(F)(F)F)CCC1C2 (centres undefined) | > 200 | > 200 µM | 
COc1ccccc1-n1c(N)c2c(C)c(-c3ccccc3)[nH]c2nc1=S | > 200 | 38 µM | 
c1cc(-c2ccc(-c3ccc(-c4ccc(-c5cccc6nsnc56)[nH]4)c4nsnc34)[nH]2)c2nsnc2c1 | > 100 | > 100 µM | 
O=C1CCC2(c3ccc(Cl)cc3)Nc3ccc(Cl)cc3N12 (centres undefined) | > 16.2 | > 16.2 µM | 
CN(C)c1c(-c2ccc(Cl)cc2)cc(-c2ccccc2)[nH]c1=O | > 20.9 | > 20.9 µM | 
O=C1C(NS(=O)(=O)c2ccccc2)=C(N(Cc2ccccc2)Cc2ccccc2)C(=O)c2ccccc21 | > 200 | 72.4 µM | 
N#CSCc1nc2ccc(Cl)cc2c(-c2ccccc2)[n+]1[O-] | > 55 | 8.91 µM | 
CCOC(=O)Cc1nc(/C(C#N)=C/c2ccco2)[nH]c(=O)c1C#N |  |  | inactive
Cn1cc(NC(=O)c2cc(NC(=O)CCCCCCCCCC(=O)Nc3cc(C(=O)Nc4cc(C(=O)NCCC(=N)N)n(C)c4)n(C)c3)cn2C)cc1C(=O)NCCC(=N)N | 4.37 | 5.75 µM | 
[N-]=[N+]=C1CNC(=O)NC1=O | > 200 | 30.2 µM | 
N#Cc1c(-c2ccc(Cl)cc2Cl)nc2[nH][nH]c(=S)n2c1=O | > 100 | > 100 µM | 
O=NC1C(Cl)C2CC1C1C(Br)C(Br)CC21 (centres undefined) | > 200 | > 200 µM | 
N#C/C(=C\c1ccccc1[N+](=O)[O-])C(=O)O | > 603 | 363 µM | 
O=C(O)C1CCC(c2ccc(Cl)cc2Cl)N1 (centres undefined) | > 200 | > 200 µM | 
O=C(O)CCC(NC(=O)c1ccc(Oc2nc3ccccc3nc2C(=O)O)cc1)C(=O)O (centres undefined) | > 200 | > 200 µM | 
O=C1CC(C(OCc2ccccc2)C(OCc2ccccc2)C(COCc2ccccc2)OCc2ccccc2)CC(=O)N1 (centres undefined) | > 200 | > 200 µM | 
O=C1c2ccccc2C(C2c3ccccc3C(=O)c3ccccc32)c2ccccc21 |  |  | inactive
NNC(=O)CCCCCCCC(=O)O | > 200 | > 200 µM | 
Cc1cn(C(Cc2ccccc2)OCCN2C(=O)c3ccccc3C2=O)c(=O)[nH]c1=O (centres undefined) | > 200 | > 200 µM | 

SMILES | EC50 [µM] | IC50 | outcome
O=S(=O)(O)c1cc(N=Nc2c(O)ccc3ccccc23)ccc1/C=C/c1ccc(N=Nc2c(O)ccc3ccccc23)cc1S(=O)(=O)O | > 50.1 | > 50.1 µM | 
COc1ccc(-c2c(-c3ccc(OC)cc3)n3c(=O)n(C)c(=O)n23)cc1 | > 200 | 79.4 µM | 
NC(=O)c1c(-c2ccccc2)c(-c2ccccc2)cc2c(=O)c3ccccc3[nH]c12 |  |  | inactive
Cc1c(N2CCN(C)CC2)nc2ccc(Cl)cc2c1-c1ccccc1 | > 14.8 | > 14.8 µM | 
COc1ccc(C2=C(Cl)c3cc(OC)c(OC)cc3C2)cc1OC | > 200 | > 200 µM | 
Cc1c(C(=O)O)[nH]c(=O)[nH]c1=O | > 200 | > 200 µM | 
CC1(C)C(O)c2ccccc2OC1N1CCN(C2Oc3ccccc3C(O)C2(C)C)CC1 (centres undefined) | > 200 | > 200 µM | 
CN(C)CC(C)(C)/C(=N\Nc1ccccc1)c1ccccc1 |  |  | inactive
C1CSCC2(COC2)CS1 | > 1410 | 1320 µM | 
S=c1[nH]nc(-c2ccccc2Cl)o1 | > 200 | 195 µM | 
CC1CCCCc2nc3c(c(=O)n21)CCCC3 (centres undefined) | > 562 | 347 µM | 
CC1C[C@@H]2OC(=O)C(C)[C@H]2C[C@]2(C)C(O)CC(O)C12 (some centres undefined) | > 933 | 47.9 µM | 
O=C(O)C(CS)NCc1c2ccccc2nc2ccccc12 (centres undefined) |  |  | inactive
O=[N+]([O-])c1ccc2c(c1)n1c(N3CCCC3)[n+]3ccccc3c1c1c3cccc[n+]3c(N3CCCC3)n21 | 72.4 | 77.6 µM | 
C1=CC2C(C3CN(c4ccccc4)N=C13)C1C3C4C=CC21C=CC43 (centres undefined) | > 200 | > 200 µM | 
CCOC(=O)c1c[nH]c2oc(/C=N/N3CC(CN4CCOCC4)OC3=O)cc2c1=O (centres undefined) | > 302 | 162 µM | 
NNc1[nH]c(=S)[nH]c1C(N)=O | > 200 | > 200 µM | 
CC(C)=[CH][Sb]([Br])([CH]=C(C)C)([CH]=C(C)C)[c]1ccccc1 | > 562 | 6.76 µM | 
COc1ccc(Nc2ccc3c4c(cccc24)C(=O)N(c2ccc(OC)cc2)C3=O)cc1 | > 200 | 31.6 µM | 
CCOC(=O)Nc1[nH]cc(-c2ccccc2)c1C#N | > 200 | > 200 µM | 
